Results published in ChEMBL document CHEMBL3600356, “Optimization of permethyl ningalin B analogs as P-glycoprotein inhibitors” (Bioorg Med Chem, 2015).
Converted amounts (≈) assume the structure as drawn.

Tests used:
[1] = Cytotoxicity against human MDA435/LCC6 cells assessed as cell survival at 1 uM after 3 days by MTS/PMS assay; format: cell-based; settings: mda-435/lcc6, 72 h
Homo sapiens = organism: Homo sapiens; experiment: Modulation of p-glycoprotein in human MDA435/LCC6MDR cells assessed as ratio of IC50 for paclitaxel in absence of drug to IC50 for paclitaxel in presence of 1 uM of drug after 5 days by MTS assay; format: cell-based
[2] = Cytotoxicity against human MDA435/LCC6MDR cells assessed as cell survival at 1 uM after 3 days by MTS/PMS assay; format: ADME, cell-based; settings: 72 h
[3] = Solubility of the compound in phosphate buffer at pH 7.4 by capillary electrophoresis system; format: physicochemical

Row | Compound | Activity [1] | Ratio IC50 (Homo sapiens) | Activity [2] | solubility [3]
1 | CCCCC1OC(=O)c2cc(NC(=O)N3C(=O)C(c4ccc(OC)c(OC)c4)=C(c4ccc(OC)c(OC)c4)C3=O)ccc21 (stereo not drawn) | Non-toxic | 2.4 | Non-toxic | –
2 | COc1ccc(C2=C(c3ccc(OC)c(OC)c3)C(=O)N(CC(=O)c3cc(Br)c(OCc4ccccc4)cc3OCCO)C2=O)cc1OC | Non-toxic | 21.4 | Non-toxic | –
3 | COc1ccc(C2=C(c3ccc(OC)c(OC)c3)C(=O)N(C(=O)Nc3ccc4c(c3)C(=O)OC4)C2=O)cc1OC | Non-toxic | 1.1 | Non-toxic | –
4 | COc1ccc(C2=C(c3ccc(OC)c(OC)c3)C(=O)N(C(=O)c3ccc(OCc4ccccc4)c(OC)c3)C2=O)cc1OC | Non-toxic | – | Non-toxic | 0.405 µg/mL (≈ 0.664 µM)
5 | COc1ccc(C2=C(c3ccc(OC)c(OC)c3)C(=O)N(C(=O)N3CCN(CC(=O)c4ccc(S(C)(=O)=O)cc4)CC3)C2=O)cc1OC | Non-toxic | 1 | Non-toxic | –
6 | COc1ccc(C2=C(c3ccc(OC)c(OC)c3)C(=O)N(C(=O)N3CCN(CC(=O)c4ccc(OCc5ccccc5)c(OC)c4)CC3)C2=O)cc1OC | Non-toxic | 5.4 | Non-toxic | –
